This assay concerns the target T1, human kinase Mps-1 (Homo sapiens, UniProt P33981).
T1 construct: N-terminally GST-tagged human full length recombinant Mps-1 kinase; GST (N); purchased Invitrogen, Karslruhe, Germany PV4071
T1 sequence (P33981 1-857): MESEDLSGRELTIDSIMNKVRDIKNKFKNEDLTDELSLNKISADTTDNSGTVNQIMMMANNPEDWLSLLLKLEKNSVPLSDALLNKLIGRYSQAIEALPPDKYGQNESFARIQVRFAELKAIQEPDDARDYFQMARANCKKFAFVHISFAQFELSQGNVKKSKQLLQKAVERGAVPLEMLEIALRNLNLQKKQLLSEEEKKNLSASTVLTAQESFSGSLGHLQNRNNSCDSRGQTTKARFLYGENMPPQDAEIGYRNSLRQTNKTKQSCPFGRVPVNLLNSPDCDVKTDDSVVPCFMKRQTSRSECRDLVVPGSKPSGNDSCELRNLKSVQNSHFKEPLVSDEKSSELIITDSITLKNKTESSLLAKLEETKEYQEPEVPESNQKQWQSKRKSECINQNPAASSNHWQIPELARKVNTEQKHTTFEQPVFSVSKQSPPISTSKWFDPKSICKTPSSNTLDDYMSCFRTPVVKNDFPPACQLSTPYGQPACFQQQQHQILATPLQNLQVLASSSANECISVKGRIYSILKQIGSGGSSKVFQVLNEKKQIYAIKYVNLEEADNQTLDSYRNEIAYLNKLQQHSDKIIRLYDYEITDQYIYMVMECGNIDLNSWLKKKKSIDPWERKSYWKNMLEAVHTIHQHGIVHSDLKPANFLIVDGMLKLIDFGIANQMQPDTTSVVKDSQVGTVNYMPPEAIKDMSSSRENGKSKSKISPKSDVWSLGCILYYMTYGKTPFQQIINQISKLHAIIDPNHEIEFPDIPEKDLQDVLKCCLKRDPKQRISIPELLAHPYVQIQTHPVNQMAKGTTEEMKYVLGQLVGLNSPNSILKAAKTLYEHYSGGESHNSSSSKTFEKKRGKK
The assay is described as follows: Mps-1 kinase assay (TR-FRET). The note with it: Mps-1 TR-FRET kinase assay; avg; read-out: Mps1 avg (IC50 [mol/l]). It counts as biochemical. The gist of the method: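 GST-tagged full-length recombinant human Mps-1 (~0.5 nM) pre-incubated 15 min with compound, then reacted 60 min at 22 °C with 10 μM ATP and 1 μM biotinylated peptide in Hepes pH 7.7 buffer. EDTA-stopped; TR-FRET (Eu anti-phospho-Ser/Thr to SA-XLent) 665/620 nm ratio normalised to no-inhibitor and no-enzyme controls.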
With `Cc1nsc(Nc2cnc(C(F)(F)F)cn2)c1C(=O)Nc1ccc(F)c(OCC2CCN(CC(F)F)C2)c1` (centres unmarked) [Example 316, N-(3-{[1-(2,2-difluoroethyl)pyrrolidin-3-yl]methoxy}-4-fluorophenyl)-3-methyl-5-{[5-(trifluoromethyl)pyrazin-2-yl]amino}-1,2-thiazole-4-carboxamide], the IC50 is at least 20 µM.

On to `Cc1nsc(Nc2cnc(C(F)(F)F)cn2)c1C(=O)Nc1ccc(F)c(OCC2CCN(CCF)C2)c1` (centres unmarked) [Example 317, N-(4-fluoro-3-{[1-(2-fluoroethyl)pyrrolidin-3-yl]methoxy}phenyl)-3-methyl-5-{[5-(trifluoromethyl)pyrazin-2-yl]amino}-1,2-thiazole-4-carboxamide], for which the IC50 is above 20 µM.

For the compound `Cc1nsc(Nc2cnc(C(F)(F)F)cn2)c1C(=O)Nc1ccc(F)c(OCC2CCN(C(CF)CF)C2)c1` (centres unmarked) [Example 320, N-(3-{[1-(1,3-difluoropropan-2-yl)pyrrolidin-3-yl]methoxy}-4-fluorophenyl)-3-methyl-5-{[5-(trifluoromethyl)pyrazin-2-yl]amino}-1,2-thiazole-4-carboxamide], the IC50 is at least 20 µM.

With `Cc1nsc(Nc2cnc(C(F)(F)F)cn2)c1C(=O)Nc1ccc(OCCNCCF)nc1` [Example 321, N-(6-{2-[(2-fluoroethyl)amino]ethoxy}pyridin-3-yl)-3-methyl-5-{[5-(trifluoromethyl)pyrazin-2-yl]amino}-1,2-thiazole-4-carboxamide], the IC50 was at least 20 µM.

For the compound `Cc1nsc(Nc2cnc(C(F)(F)F)cn2)c1C(=O)Nc1ccc(OCCNCC(F)(F)F)nc1` [Example 322, 3-methyl-N-(6-{2-[(2,2,2-trifluoroethyl)amino]ethoxy}pyridin-3-yl)-5-{[5-(trifluoromethyl)pyrazin-2-yl]amino}-1,2-thiazole-4-carboxamide], the IC50 was at least 20 µM.
